# Assays:
# [1] = target: Bifunctional 3'-5' exonuclease/ATP-dependent helicase WRN (Homo sapiens, UniProt Q14191); test: ADP-Glo Kinase Assay
# Protocol: ATPase activity was measured using the ADP-Glo Kinase Assay following the manufacturers recommended protocol.
# [2] = target: T1, Bifunctional 3'-5' exonuclease/ATP-dependent helicase WRN [480-1251] (UniProt Q14191); test: Biochemical Activity Assays
# T1 construct: 480-1251
# Protocol: The pure fractions were pooled and desalted/buffer exchanged into storage buffer using a HiTrap desalting column. […] First, WRN alone was pre-incubated with DMSO or compound of interest for 15 minutes. To initiate the reaction, ATP, dsDNA substrate, and ssDNA competitor (ssDNA_comp: […]) were added and incubated at room temperature for 20 minutes at which point DNA unwinding activity was monitored by measuring Cy3 fluorescence. After obtaining the reading, the ATPase activity was measured using the ADP-Glo Kinase Assay following the manufacturers recommended protocol. […] Compounds were assayed in a 10-point dose response in duplicate at a 1% DMSO final assay concentration.
# T1 sequence (Q14191 480-1251): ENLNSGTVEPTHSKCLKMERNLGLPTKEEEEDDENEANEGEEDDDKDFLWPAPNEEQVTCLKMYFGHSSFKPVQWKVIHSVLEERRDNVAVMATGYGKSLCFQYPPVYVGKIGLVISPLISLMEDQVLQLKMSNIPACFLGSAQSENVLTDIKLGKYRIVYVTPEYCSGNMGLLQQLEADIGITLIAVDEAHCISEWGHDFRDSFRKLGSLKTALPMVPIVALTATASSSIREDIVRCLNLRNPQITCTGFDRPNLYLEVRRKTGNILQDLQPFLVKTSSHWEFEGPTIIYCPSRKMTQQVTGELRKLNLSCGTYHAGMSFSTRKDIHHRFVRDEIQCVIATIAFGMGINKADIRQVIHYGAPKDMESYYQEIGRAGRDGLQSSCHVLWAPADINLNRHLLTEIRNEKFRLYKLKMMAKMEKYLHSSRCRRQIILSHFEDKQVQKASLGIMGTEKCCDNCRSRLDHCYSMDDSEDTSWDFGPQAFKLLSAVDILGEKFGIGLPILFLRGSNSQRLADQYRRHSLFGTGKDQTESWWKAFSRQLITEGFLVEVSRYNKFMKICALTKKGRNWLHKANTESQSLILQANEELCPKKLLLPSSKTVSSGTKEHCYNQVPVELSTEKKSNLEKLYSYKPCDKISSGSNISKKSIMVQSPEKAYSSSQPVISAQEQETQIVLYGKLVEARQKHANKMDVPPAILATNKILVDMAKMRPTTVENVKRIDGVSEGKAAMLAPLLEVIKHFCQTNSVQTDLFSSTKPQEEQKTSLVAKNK
# Chain of Bifunctional 3'-5' exonuclease/ATP-dependent helicase WRN (Q14191 whole entry): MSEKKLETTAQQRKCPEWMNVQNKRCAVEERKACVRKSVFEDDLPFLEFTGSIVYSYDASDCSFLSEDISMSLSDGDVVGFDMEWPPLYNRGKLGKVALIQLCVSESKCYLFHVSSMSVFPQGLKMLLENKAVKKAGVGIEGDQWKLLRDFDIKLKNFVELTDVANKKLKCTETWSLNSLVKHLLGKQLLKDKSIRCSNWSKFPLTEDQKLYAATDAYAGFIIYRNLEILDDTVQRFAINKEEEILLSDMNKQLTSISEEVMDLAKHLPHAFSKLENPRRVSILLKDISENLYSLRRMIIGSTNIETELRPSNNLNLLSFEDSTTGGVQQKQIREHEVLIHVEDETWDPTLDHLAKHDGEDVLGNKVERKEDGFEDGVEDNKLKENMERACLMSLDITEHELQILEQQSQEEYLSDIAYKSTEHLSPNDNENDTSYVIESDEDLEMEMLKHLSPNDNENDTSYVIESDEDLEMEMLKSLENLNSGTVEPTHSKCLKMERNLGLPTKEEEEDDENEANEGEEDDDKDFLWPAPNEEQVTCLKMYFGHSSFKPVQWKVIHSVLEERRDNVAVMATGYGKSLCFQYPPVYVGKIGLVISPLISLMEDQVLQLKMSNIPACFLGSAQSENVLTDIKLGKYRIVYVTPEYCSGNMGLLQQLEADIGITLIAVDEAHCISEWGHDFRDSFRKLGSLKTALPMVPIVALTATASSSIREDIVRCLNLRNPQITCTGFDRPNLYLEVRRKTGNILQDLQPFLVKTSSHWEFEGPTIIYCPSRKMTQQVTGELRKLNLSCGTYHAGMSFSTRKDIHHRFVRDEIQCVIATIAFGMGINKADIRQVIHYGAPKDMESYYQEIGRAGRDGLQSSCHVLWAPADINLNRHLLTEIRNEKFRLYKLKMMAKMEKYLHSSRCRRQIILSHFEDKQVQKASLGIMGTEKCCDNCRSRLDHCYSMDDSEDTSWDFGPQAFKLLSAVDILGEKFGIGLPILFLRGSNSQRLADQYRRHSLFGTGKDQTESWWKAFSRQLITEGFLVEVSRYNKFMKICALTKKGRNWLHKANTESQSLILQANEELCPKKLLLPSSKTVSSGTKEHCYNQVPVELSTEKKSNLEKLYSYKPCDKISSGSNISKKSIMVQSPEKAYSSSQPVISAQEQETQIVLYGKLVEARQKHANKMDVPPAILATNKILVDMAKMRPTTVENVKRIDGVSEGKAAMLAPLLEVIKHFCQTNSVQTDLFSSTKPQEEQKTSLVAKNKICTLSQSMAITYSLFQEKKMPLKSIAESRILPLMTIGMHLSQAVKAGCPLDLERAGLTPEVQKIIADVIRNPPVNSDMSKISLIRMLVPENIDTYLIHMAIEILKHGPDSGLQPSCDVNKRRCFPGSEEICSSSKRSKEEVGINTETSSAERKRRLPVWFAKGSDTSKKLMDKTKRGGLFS
IC50 [1],IC50 [2],Structure (SMILES)
52.1 nM,36 nM,"CCc1c(N2CCN(C(=O)c3ccnc4cc[nH]c34)CC2)c(=O)n2nc(C3=CCOCC3)nc2n1CC(=O)Nc1ccc(C(F)(F)F)cc1Cl [WO2025049746, Example 46]"
31.8 nM,23.9 nM,"CCc1c(N2CCN(C(=O)c3cncc4cc[nH]c34)CC2)c(=O)n2nc(C3=CCOCC3)nc2n1CC(=O)Nc1ccc(C(F)(F)F)cc1Cl [WO2025049746, Example 47]"
27 nM,19.8 nM,"CCc1c(N2CCN(C(=O)c3nccc4nn[nH]c34)CC2)c(=O)n2nc(C3=CCOCC3)nc2n1CC(=O)Nc1ccc(C(F)(F)F)cc1Cl [WO2025049746, Example 48]"
130 nM,46.7 nM,"CCc1c(N2CCN(C(=O)c3cccc4c3nnn4C)CC2)c(=O)n2nc(C3=CCOCC3)nc2n1CC(=O)Nc1ccc(C(F)(F)F)cc1Cl [WO2025049746, Example 49]"
156 nM,79.4 nM,"CCc1c(N2CCN(C(=O)c3cccn4ccnc34)CC2)c(=O)n2nc(C3=CCOCC3)nc2n1CC(=O)Nc1ccc(C(F)(F)F)cc1Cl [WO2025049746, Example 50]"
57.1 nM,43.9 nM,"CCc1c(N2CCN(C(=O)c3cccc4[nH]c(=O)[nH]c34)CC2)c(=O)n2nc(C3=CCOCC3)nc2n1CC(=O)Nc1ccc(C(F)(F)F)cc1Cl [WO2025049746, Example 51]"
39.4 nM,28.6 nM,"CCc1c(N2CCN(C(C)=O)CC2)c(=O)n2nc(C3=CCOCC3)nc2n1CC(=O)Nc1ccc(C(F)(F)F)cc1Cl [WO2025049746, Example 52]"
440 nM,254 nM,"CCc1c(N2CCN(C(=O)CO)CC2)c(=O)n2nc(C3=CCOCC3)nc2n1CC(=O)Nc1ccc(C(F)(F)F)cc1Cl [WO2025049746, Example 53]"
182 nM,46.1 nM,"CCc1c(N2CCN(C(=O)C(C)O)CC2)c(=O)n2nc(C3=CCOCC3)nc2n1CC(=O)Nc1ccc(C(F)(F)F)cc1Cl (stereo unspecified) [WO2025049746, Example 54]"
5740 nM,3350 nM,"CCc1c(N2CCN(C(=O)C3(CO)CC3)CC2)c(=O)n2nc(C3=CCOCC3)nc2n1CC(=O)Nc1ccc(C(F)(F)F)cc1Cl [WO2025049746, Example 55]"
737 nM,139 nM,"CCc1c(N2CCN(C(=O)C(F)(F)CO)CC2)c(=O)n2nc(C3=CCOCC3)nc2n1CC(=O)Nc1ccc(C(F)(F)F)cc1Cl [WO2025049746, Example 56]"
827 nM,486 nM,"CCc1c(N2CCN(C(=O)C(F)(F)C3(O)CCC3)CC2)c(=O)n2nc(C3=CCOCC3)nc2n1CC(=O)Nc1ccc(C(F)(F)F)cc1Cl [WO2025049746, Example 57]"
1260 nM,187 nM,"CCc1c(N2CCN(C(=O)C3CCCC3O)CC2)c(=O)n2nc(C3=CCOCC3)nc2n1CC(=O)Nc1ccc(C(F)(F)F)cc1Cl (stereo unspecified) [WO2025049746, Example 58]"
83.5 nM,33.4 nM,"CCc1c(N2CCN(S(C)(=O)=O)CC2)c(=O)n2nc(C3=CCOCC3)nc2n1CC(=O)Nc1ccc(C(F)(F)F)cc1Cl [WO2025049746, Example 59]"
38.5 nM,44.5 nM,"CCc1c(N2CCN(S(=O)(=O)C3CC3)CC2)c(=O)n2nc(C3=CCOCC3)nc2n1CC(=O)Nc1ccc(C(F)(F)F)cc1Cl [WO2025049746, Example 60]"
125 nM,66.7 nM,"CCc1c(N2CCN(C(=O)Cn3cncn3)CC2)c(=O)n2nc(C3=CCOCC3)nc2n1CC(=O)Nc1ccc(C(F)(F)F)cc1Cl [WO2025049746, Example 61]"
413 nM,133 nM,"CCc1c(N2CCN(C(=O)C(C)n3cncn3)CC2)c(=O)n2nc(C3=CCOCC3)nc2n1CC(=O)Nc1ccc(C(F)(F)F)cc1Cl (stereo unspecified) [WO2025049746, Example 62]"
63.9 nM,45.9 nM,"CCc1c(N2CCN(c3ccncn3)CC2)c(=O)n2nc(C3=CCOCC3)nc2n1CC(=O)Nc1ccc(C(F)(F)F)cc1Cl [WO2025049746, Example 66]"
235 nM,141 nM,"CCc1c(N2CCN(C(=O)c3ncnc(C)c3O)CC2)c(=O)n2nc(C3=CCOCC3)nc2n1CC(=O)NC12CC(C(F)(F)C(F)(F)F)(C1)C2 [WO2025049746, Example 69]"
852 nM,748 nM,"CCc1c(N2CCN(C(=O)c3ncnc(C)c3O)CC2)c(=O)n2nc(C3=CCOCC3)nc2n1CC(=O)NC12COC(C(F)(F)F)(C1)C2 [WO2025049746, Example 70]"
26.1 nM,18.8 nM,"CCc1c(N2CCN(C(=O)c3ncnc(C)c3O)CC2)c(=O)n2nc(C3=CCOCC3)nc2n1CC(=O)Nc1ccc(C(F)(F)C(F)(F)Cl)cc1 [WO2025049746, Example 71]"
14.6 nM,12.2 nM,"CCc1c(N2CCN(C(=O)c3ncnc(C)c3O)CC2)c(=O)n2nc(C3=CCOCC3)nc2n1CC(=O)Nc1ccc(OC(F)(F)Cl)cc1 [WO2025049746, Example 72]"

IC50 [1],IC50 [2],Structure (SMILES)
62.1 nM,44.3 nM,"CCc1c(N2CCN(C(=O)c3ncnc(C)c3O)CC2)c(=O)n2nc(N(C)C)nc2n1CC(=O)Nc1ccc(C(F)(F)F)cc1C [WO2025049746, Example 77]"
194 nM,70.1 nM,"CCc1c(N2CCN(C(=O)c3ncnc(C)c3O)CC2)c(=O)n2nc(C3CC3)nc2n1CC(=O)Nc1ccc(C(F)(F)F)cc1C [WO2025049746, Example 78]"
539 nM,456 nM,"CCc1c(N2CCN(C(=O)c3ncnc(C)c3O)CC2)c(=O)n2nc(C3CCC3)nc2n1CC(=O)Nc1ccc(C(F)(F)F)cc1C [WO2025049746, Example 79]"
43.3 nM,26.9 nM,"CCc1c(N2CCN(C(=O)c3nccc4nc[nH]c34)CC2)c(=O)n2nc(N(C)C)nc2n1CC(=O)Nc1ccc(C(F)(F)F)cc1Cl [WO2025049746, Example 80]"
533 nM,174 nM,"CCc1c(N2CCN(C(C)=O)CC2)c(=O)n2nc(N(C)C)nc2n1CC(=O)Nc1ccc(C(F)(F)F)cc1Cl [WO2025049746, Example 81]"
58.9 nM,40.7 nM,"CCc1c(N2CCN(C(=O)c3ccccc3NS(C)(=O)=O)CC2)c(=O)n2nc(N(C)C)nc2n1CC(=O)Nc1ccc(C(F)(F)F)cc1Cl [WO2025049746, Example 82]"
64.6 nM,44.7 nM,"CCc1c(N2CCN(C(=O)c3cn(C)nc3O)CC2)c(=O)n2nc(N(C)C)nc2n1CC(=O)Nc1ccc(C(F)(F)F)cc1Cl [WO2025049746, Example 83]"
40.7 nM,38.4 nM,"CCc1c(N2CCN(C(=O)c3nc4n(c(=O)c3OCc3ccccc3)CCOC4)CC2)c(=O)n2nc(N(C)C)nc2n1CC(=O)Nc1ccc(C(F)(F)F)cc1Cl [WO2025049746, Example 84]"
35.1 nM,28.2 nM,"CCc1c(N2CCN(C(=O)c3ccccc3NS(=O)(=O)C3CC3)CC2)c(=O)n2nc(N(C)C)nc2n1CC(=O)Nc1ccc(C(F)(F)F)cc1Cl [WO2025049746, Example 85]"
21.5 nM,21.3 nM,"CCc1c(N2CCN(C(=O)c3nc4n(c(=O)c3O)CCOC4)CC2)c(=O)n2nc(-c3ccc4c(c3)OCO4)nc2n1CC(=O)Nc1ccc(C(F)(F)F)cc1Cl [WO2025049746, Example 86]"
159 nM,138 nM,"CCc1c(N2CCN(C(=O)c3ccccc3NS(=O)(=O)C3CC3)CC2)c(=O)n2nc(-c3ccc4c(c3)OCO4)nc2n1CC(=O)Nc1ccc(C(F)(F)F)cc1Cl [WO2025049746, Example 87]"
48.8 nM,28.9 nM,"CCc1c(N2CCN(C(=O)c3nccc4nc[nH]c34)CC2)c(=O)n2nc(-c3ccc4c(c3)OCO4)nc2n1CC(=O)Nc1ccc(C(F)(F)F)cc1Cl [WO2025049746, Example 88]"
250 nM,240 nM,"CCc1c(N2CCN(C(C)=O)CC2)c(=O)n2nc(-c3ccc4c(c3)OCO4)nc2n1CC(=O)Nc1ccc(C(F)(F)F)cc1Cl [WO2025049746, Example 89]"
34.6 nM,29.2 nM,"CCc1c(N2CCN(C(=O)c3nc4n(c(=O)c3O)CCOC4)CC2)c(=O)n2nc(-c3ccc4c(c3)CCOC4)nc2n1CC(=O)Nc1ccc(C(F)(F)F)cc1Cl [WO2025049746, Example 90]"
106 nM,84.6 nM,"CCc1c(N2CCN(C(=O)c3ccccc3NS(=O)(=O)C3CC3)CC2)c(=O)n2nc(-c3ccc4c(c3)CCOC4)nc2n1CC(=O)Nc1ccc(C(F)(F)F)cc1Cl [WO2025049746, Example 91]"
27.9 nM,23 nM,"CCc1c(N2CCN(C(=O)c3nccc4nc[nH]c34)CC2)c(=O)n2nc(-c3ccc4c(c3)CCOC4)nc2n1CC(=O)Nc1ccc(C(F)(F)F)cc1Cl [WO2025049746, Example 92]"
381 nM,320 nM,"CCc1c(N2CCN(C(=O)c3nc4n(c(=O)c3O)CCOC4)CC2)c(=O)n2nc(N3C[C@H]4COC[C@H]4C3)nc2n1CC(=O)Nc1ccc(C(F)(F)F)cc1Cl [WO2025049746, Example 93]"
26.6 nM,23.4 nM,"CCc1c(N2CCN(C(=O)c3ccccc3NS(=O)(=O)C3CC3)CC2)c(=O)n2nc(N3C[C@H]4COC[C@H]4C3)nc2n1CC(=O)Nc1ccc(C(F)(F)F)cc1Cl [WO2025049746, Example 94]"
20.1 nM,16.3 nM,"CCc1c(N2CCN(C(=O)c3nccc4nc[nH]c34)CC2)c(=O)n2nc(N3C[C@H]4COC[C@H]4C3)nc2n1CC(=O)Nc1ccc(C(F)(F)F)cc1Cl [WO2025049746, Example 95]"
28.3 nM,25.9 nM,"CCc1c(N2CCN(C(=O)c3ncnc(C)c3O)CC2)c(=O)n2nc(-c3ccc4c(c3)OCO4)nc2n1CC(=O)Nc1ccc(C(F)(F)F)c2c1CC2 [WO2025049746, Example 96]"
19.3 nM,15.9 nM,"CCc1c(N2CCN(C(=O)c3ncnc(C)c3O)CC2)c(=O)n2nc(-c3cccc4c3OCCO4)nc2n1CC(=O)Nc1ccc(C(F)(F)F)c2c1CC2 [WO2025049746, Example 97]"
